Laboratory results: the Biogen ADME set (Fang et al. 2023)
≈ marks a conversion by molar mass, not a printed value.

Details: for aqueous solubility: pH 6.8

Row | SMILES | MDR1-MDCK efflux ratio | intrinsic clearance, human liver microsomes | intrinsic clearance, rat liver microsomes | aqueous solubility | fraction unbound, rat plasma
1 | O=S(=O)(Nc1cccc(-c2nc3ccccc3[nH]2)c1)c1ccc(Cl)cc1 | 10.7 | 20 mL/min/kg | 2940 mL/min/kg | 4.89 µg/mL (≈ 12.7 µM) | 
2 | Cc1cc(CNc2ncc(C(F)(F)F)cc2Cl)no1 | 0.601 | 64.6 mL/min/kg | 128 mL/min/kg | 26.8 µg/mL (≈ 92 µM) | 
3 | CC1(C)CC[C@]2(NC(=O)C(C)(F)F)CC[C@]3(C)[C@H](C(=O)C=C4[C@@]5(C)C=C(C#N)C(=O)C(C)(C)[C@@H]5CC[C@]43C)[C@@H]2C1 | 6.31 | 76.7 mL/min/kg | 145 mL/min/kg |  | 0.0088
4 | CS(=O)(=O)N1CCc2c(cccc2NC(=O)c2ccc(F)cc2)C1 | 6.4 |  |  | 0.37 µg/mL (≈ 1.06 µM) | 
5 | Cc1nc2ncccn2c1C(=O)N(CC#Cc1ccccc1)C1CCCC1 | 1.94 | 63.7 mL/min/kg | 4650 mL/min/kg | 42.9 µg/mL (≈ 120 µM) | 
6 | CCc1cnc(NCc2ccc(CN3CCCC3)cc2)nc1 | 1.06 | ≤ 4.74 mL/min/kg | 291 mL/min/kg | 31.8 µg/mL (≈ 107 µM) | 
7 | COCC(=O)N1CC[C@H](c2nnc(-c3ccc(C)cc3)o2)C1 | 1.36 | ≤ 4.74 mL/min/kg | ≤ 10.7 mL/min/kg | 52.7 µg/mL (≈ 175 µM) | 
8 | O=c1c(-c2ccc(F)cc2)c(-c2ccncc2)[nH]n1-c1ccc(Cl)cc1 | 1.46 | ≤ 4.74 mL/min/kg | ≤ 10.7 mL/min/kg | 21.8 µg/mL (≈ 59.6 µM) | 
9 | COc1cc2c(cc1OC)CN(C(=O)C1CCCN(C(=O)OC(C)(C)C)C1)CC2 (configuration not stated) | 1.79 | 106 mL/min/kg | 643 mL/min/kg | 61.9 µg/mL (≈ 153 µM) | 
10 | O=C(/C=C\n1cnc(-c2cc(C(F)(F)F)cc(C(F)(F)F)c2)n1)NNc1ccccn1 | 1.08 | 13.9 mL/min/kg | 52.4 mL/min/kg |  | 
11 | Cc1csc(Nc2ccc(C#N)cc2)n1 | 0.419 | 201 mL/min/kg | 620 mL/min/kg | 38.2 µg/mL (≈ 177 µM) | 
12 | Cc1cccc(C(=O)NCC#Cc2ccccc2)n1 | 0.421 | 38.2 mL/min/kg | 557 mL/min/kg | 29.7 µg/mL (≈ 119 µM) | 
13 | CCOc1c2c(c(OCC)c3ccccc13)C(=O)N(c1ccc(CC(=O)NS(=O)(=O)c3ccccc3)cc1)C2 | 2.9 | ≤ 4.74 mL/min/kg | 17.3 mL/min/kg |  | 
14 | CN(CCc1ccccn1)C(=O)Nc1nncs1 | 1.63 | ≤ 4.74 mL/min/kg | ≤ 10.7 mL/min/kg | 45.6 µg/mL (≈ 173 µM) | 
15 | Clc1ccc(-c2ccc(CNCC3CCCO3)o2)c(Cl)c1 (configuration not stated) | 0.624 | 55.4 mL/min/kg | 1050 mL/min/kg | 30.4 µg/mL (≈ 93.3 µM) | 
16 | C/C(=C/COc1c2occc2cc2ccc(=O)oc12)CO | 0.662 | 18.3 mL/min/kg | 442 mL/min/kg |  | 
17 | Cc1nnc(N2CC[C@H](O)C2)c(C#N)c1C | 1.3 | ≤ 4.74 mL/min/kg | ≤ 10.7 mL/min/kg | 31.2 µg/mL (≈ 143 µM) | 
18 | CCOc1ccc(C(=O)Nc2cc(C(=O)OC)ccc2N2CCN(C(C)=O)CC2)cc1 | 5.81 | 21.8 mL/min/kg | 444 mL/min/kg | 2.41 µg/mL (≈ 5.66 µM) | 
19 | CC(C)CN1C(=O)C(=O)N(Cc2ccccn2)C1=O | 0.838 | ≤ 4.74 mL/min/kg | 28.4 mL/min/kg | 39.2 µg/mL (≈ 150 µM) | 
20 | O=c1[nH]c2nc(N3CCc4ccccc4C3)ncc2c(=O)n1-c1ccccc1 | 0.445 |  |  | 0.2 µg/mL (≈ 0.539 µM) | 
21 | CC(C)CCCNC(=O)c1[nH]ncc1Br | 0.579 | 16.5 mL/min/kg | 742 mL/min/kg |  | 
22 | Cc1cc(NC(=O)Cn2nc(C3CC3)ccc2=O)ccc1Cl | 0.894 |  |  | 0.86 µg/mL (≈ 2.71 µM) | 
23 | N#Cc1cccc(-c2ccc(=O)n3c2[C@@H]2C[C@@H](CN(Cc4ccc(F)cc4)C2)C3)c1 | 6.11 | 218 mL/min/kg | 1470 mL/min/kg | 32.4 µg/mL (≈ 81.2 µM) | 
24 | CCc1ncc2c(n1)CN(c1ccnc(-c3ccccc3)n1)CC2 | 0.485 | 36.1 mL/min/kg | 259 mL/min/kg | 34.9 µg/mL (≈ 110 µM) | 
25 | Cc1ccc(C2=NC3(CCN(Cc4ccc(F)cc4)CC3)NC2=O)cc1 | 0.541 | 11.2 mL/min/kg | 669 mL/min/kg | 12.7 µg/mL (≈ 36.2 µM) | 
26 | Cn1cc(CCNC(=O)N2CCc3sccc3C2)cn1 | 1.51 | 15 mL/min/kg | 68.4 mL/min/kg | 40 µg/mL (≈ 138 µM) | 
27 | O=C(C1CCCN(c2cnccn2)C1)N1CCc2ccccc2C1 (configuration not stated) |  | 273 mL/min/kg | 4500 mL/min/kg | 53.2 µg/mL (≈ 165 µM) | 
